US7138361B2, “Herbicidal heterocycles” (E. I. du Pont de Nemours and Company, priority 2000, dated 2006)

Tests used:
Format in all cases: in vivo
[1] = test system: Surinam grass (Brachiaria decumbens); assay: Test B postemergence; settings: 13 to 15 days
Summary of the method: (§1)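 Greenhouse test: chemicals are formulated in a surfactant-containing non-phytotoxic solvent and applied either preemergence to planted seeds or postemergence to plants 2 to 18 cm tall. Response is rated visually versus controls after 13 to 15 days, 0 meaning no effect and 100 complete control.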

[2] = test system: barnyardgrass (Echinochloa crus-galli); assay: Test B postemergence; settings: 13 to 15 days
Summary of the method: as §1

[3] = test system: cocklebur (Xanthium strumarium); assay: Test B postemergence; settings: 13 to 15 days
Summary of the method: as §1

corn (Zea mays) [4] = assay: Test B postemergence; settings: 13 to 15 days
Summary of the method: as §1

[5] = test system: crabgrass (Digitaria sanguinalis); assay: Test B postemergence; settings: 13 to 15 days
Summary of the method: as §1

[6] = test system: giant foxtail (Setaria faberii); assay: Test B postemergence; settings: 13 to 15 days
Summary of the method: as §1

[7] = test system: morning glory (Ipomoea hederacea); assay: Test B postemergence; settings: Rate 500 g/ha, scale 0 to 100, 0 is no effect, 100 is complete control, 13 to 15 days
Summary of the method: as §1

[8] = test system: pigweed (Amaranthus retroflexus); assay: Test B postemergence; settings: Rate 500 g/ha, scale 0 to 100, 0 is no effect, 100 is complete control, 13 to 15 days
Summary of the method: as §1

[9] = test system: velvetleaf (Abutilon theophrasti); assay: Test B postemergence; settings: Rate 500 g/ha, scale 0 to 100, 0 is no effect, 100 is complete control, 13 to 15 days
Summary of the method: as §1

[10] = test system: wheat (Triticum aestivum); assay: Test B postemergence; settings: Rate 500 g/ha, scale 0 to 100, 0 is no effect, 100 is complete control, 13 to 15 days
Summary of the method: as §1

wild oat (Avena fatua) = assay: Test B postemergence; settings: Rate 500 g/ha, scale 0 to 100, 0 is no effect, 100 is complete control, 13 to 15 days
Summary of the method: as §1

Nightshade = assay: Test C preemergence
Sunflower [11] = assay: Test C preemergence; settings: Rate 125 g/ha; scale 0 to 100, 0 no effect, 100 complete control
[12] = test system: common ragweed (Ambrosia elatior); assay: Test C preemergence; settings: for Plant response rating (0 to 100), Ragweed, Common: Rate 500 g/ha, visual evaluation after 12 to 14 days
Summary of the method: (§2)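 Preemergence: seeds sown then treated. Postemergence: plants 2–18 cm, 1- to 4-leaf. Both with surfactant-containing solvent formulation; visual injury scored 0–100 after 12–14 d.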

corn (Zea mays) [13] = assay: Test C preemergence; settings: for Plant response rating (0 to 100), Corn: Rate 500 g/ha, visual evaluation after 12 to 14 days
Summary of the method: as §2

[14] = test system: goosegrass (Eleusine indica); assay: Test C preemergence; settings: for Plant response rating (0 to 100), Goosegrass: Rate 500 g/ha, visual evaluation after 12 to 14 days
Summary of the method: as §2

[15] = test system: johnsongrass (Sorghum halepense); assay: Test C preemergence; settings: for Plant response rating (0 to 100), Johnsongrass: Rate 500 g/ha, visual evaluation after 12 to 14 days
Summary of the method: as §2

[16] = test system: lambsquarters (Chenopodium album); assay: Test C preemergence; settings: for Plant response rating (0 to 100), Lambsquarters: Rate 500 g/ha, visual evaluation after 12 to 14 days
Summary of the method: as §2

[17] = test system: morningglory (Ipomoea hederacea); assay: Test C preemergence; settings: for Plant response rating (0 to 100), Morningglory: Rate 500 g/ha, visual evaluation after 12 to 14 days
Summary of the method: as §2

[18] = test system: velvetleaf (Abutilon theophrasti); assay: Test C preemergence; settings: for Plant response rating (0 to 100), Velvetleaf: Rate 500 g/ha, visual evaluation after 12 to 14 days
Summary of the method: as §2

[19] = test system: yellow nutsedge (Cyperus esculentus); assay: Test C preemergence; settings: for Plant response rating (0 to 100), Nutsedge: Rate 500 g/ha, visual evaluation after 12 to 14 days
Summary of the method: as §2

Sunflower [20] = assay: Test C preemergence; settings: Rate 500 g/ha, visual evaluation after 12 to 14 days
[21] = Rate 125 g/ha, scale 0 (no effect) to 100 (complete control)
[22] = Rate 500 g/ha, scale 0 to 100, 0 is no effect, 100 is complete control
[23] = Rate 125 g/ha, scale 0 to 100, 0 no effect, 100 complete control
[24] = Rate 250 g/ha, scale 0 to 100, 0 no effect, 100 complete control
[25] = preemergence, Rate 62 g/ha, scale 0 to 100
[26] = preemergence, Rate 250 g/ha, scale 0 to 100, 0 no effect, 100 complete control

Structure (SMILES): CCC(C)c1ccn(C2CCN(c3cccc(OC)c3)C2=O)n1 (centres unmarked) [Compound 95]
- Plant response rating, Surinam grass [1, 21]: 0
- Plant response rating, Surinam grass [1, 22]: 0
- Plant response rating, Barnyardgrass [2, 21]: 0
- Plant response rating, Barnyardgrass [2, 22]: 30
- Plant response rating, Cocklebur [3, 21]: 0
- Plant response rating, Cocklebur [3, 22]: 20
- Plant response rating, Corn (corn (Zea mays) [4]; [21]): 0
- Plant response rating, Corn (corn (Zea mays) [4]; [22]): 0
- Plant response rating, Crabgrass [5, 21]: 0
- Plant response rating, Crabgrass [5, 22]: 20
- Plant response rating, Foxtail, Giant [6, 21]: 0
- Plant response rating, Foxtail, Giant [6, 22]: 0
- Plant response rating, Morningglory [7]: 20
- Plant response rating, Pigweed [8]: 60
- Plant response rating, Velvetleaf [9]: 0
- Plant response rating, Wheat [10]: 0
- Plant response rating, Wild Oat (wild oat (Avena fatua)): 0
- Plant response rating, Nightshade (Nightshade; Rate 62 g/ha, scale 0 to 100): 0
- Plant response rating, Nightshade (Nightshade; [23]): 0
- Plant response rating, Nightshade (Nightshade; [24]): 0
- Plant response rating, Sunflower (Sunflower [11]): 0
- Plant response rating, Ragweed, Common [12, 23]: 0
- Plant response rating, Ragweed, Common [12, 25]: 0
- Plant response rating (0 to 100), Ragweed, Common ([12]; preemergence): 10
- Plant response rating, Ragweed, Common [12, 26]: 0
- Plant response rating, Corn (corn (Zea mays) [13]; [23]): 10
- Plant response rating, Corn (corn (Zea mays) [13]; [25]): 10
- Plant response rating (0 to 100), Corn (corn (Zea mays) [13]; preemergence): 40
- Plant response rating, Corn (corn (Zea mays) [13]; [26]): 40
- Plant response rating, Goosegrass [14, 23]: 100
- Plant response rating, Goosegrass [14, 25]: 100
- Plant response rating (0 to 100), Goosegrass ([14]; preemergence): 100
- Plant response rating, Goosegrass [14, 26]: 100
- Plant response rating, Johnsongrass [15, 23]: 30
- Plant response rating, Johnsongrass [15, 25]: 30
- Plant response rating (0 to 100), Johnsongrass ([15]; preemergence): 90
- Plant response rating, Johnsongrass [15, 26]: 60
- Plant response rating, Lambsquarters [16, 23]: 100
- Plant response rating, Lambsquarters [16, 25]: 100
- Plant response rating (0 to 100), Lambsquarters ([16]; preemergence): 100
- Plant response rating, Lambsquarters [16, 26]: 100
- Plant response rating, Morningglory [17, 23]: 0
- Plant response rating, Morningglory [17, 25]: 0
- Plant response rating (0 to 100), Morningglory ([17]; preemergence): 0
- Plant response rating, Morningglory [17, 26]: 0
- Plant response rating, Velvetleaf [18, 23]: 0
- Plant response rating, Velvetleaf [18, 25]: 0
- Plant response rating (0 to 100), Velvetleaf ([18]; preemergence): 0
- Plant response rating, Velvetleaf [18, 26]: 0
- Plant response rating, Nutsedge [19, 23]: 0
- Plant response rating, Nutsedge [19, 25]: 0
- Plant response rating (0 to 100), Nutsedge ([19]; preemergence): 70
- Plant response rating (0 to 100), Sunflower (Sunflower [20]): 10

Structure (SMILES): CCC(CC)c1ccn(C2CCN(c3cccc(OC)c3)C2=O)n1 (centres unmarked) [Compound 96]
- Plant response rating, Surinam grass [1, 21]: 0
- Plant response rating, Surinam grass [1, 22]: 0
- Plant response rating, Barnyardgrass [2, 21]: 0
- Plant response rating, Barnyardgrass [2, 22]: 90
- Plant response rating, Cocklebur [3, 21]: 10
- Plant response rating, Cocklebur [3, 22]: 20
- Plant response rating, Corn (corn (Zea mays) [4]; [21]): 0
- Plant response rating, Corn (corn (Zea mays) [4]; [22]): 0
- Plant response rating, Crabgrass [5, 21]: 20
- Plant response rating, Crabgrass [5, 22]: 70
- Plant response rating, Foxtail, Giant [6, 21]: 0
- Plant response rating, Foxtail, Giant [6, 22]: 40
- Plant response rating, Morningglory [7]: 50
- Plant response rating, Pigweed [8]: 90
- Plant response rating, Velvetleaf [9]: 10
- Plant response rating, Wheat [10]: 0
- Plant response rating, Wild Oat (wild oat (Avena fatua)): 0
- Plant response rating, Nightshade (Nightshade; Rate 62 g/ha, scale 0 to 100): 0
- Plant response rating, Nightshade (Nightshade; [23]): 10
- Plant response rating, Nightshade (Nightshade; [24]): 60
- Plant response rating, Sunflower (Sunflower [11]): 0
- Plant response rating, Ragweed, Common [12, 23]: 0
- Plant response rating, Ragweed, Common [12, 25]: 0
- Plant response rating (0 to 100), Ragweed, Common ([12]; preemergence): 70
- Plant response rating, Ragweed, Common [12, 26]: 40
- Plant response rating, Corn (corn (Zea mays) [13]; [23]): 20
- Plant response rating, Corn (corn (Zea mays) [13]; [25]): 0
- Plant response rating (0 to 100), Corn (corn (Zea mays) [13]; preemergence): 50
- Plant response rating, Corn (corn (Zea mays) [13]; [26]): 40
- Plant response rating, Goosegrass [14, 23]: 100
- Plant response rating, Goosegrass [14, 25]: 100
- Plant response rating (0 to 100), Goosegrass ([14]; preemergence): 100
- Plant response rating, Goosegrass [14, 26]: 100
- Plant response rating, Johnsongrass [15, 23]: 30
- Plant response rating, Johnsongrass [15, 25]: 20
- Plant response rating (0 to 100), Johnsongrass ([15]; preemergence): 70
- Plant response rating, Johnsongrass [15, 26]: 50
- Plant response rating, Lambsquarters [16, 23]: 100
- Plant response rating, Lambsquarters [16, 25]: 100
- Plant response rating (0 to 100), Lambsquarters ([16]; preemergence): 100
- Plant response rating, Lambsquarters [16, 26]: 100
- Plant response rating, Morningglory [17, 23]: 0
- Plant response rating, Morningglory [17, 25]: 0
- Plant response rating (0 to 100), Morningglory ([17]; preemergence): 20
- Plant response rating, Morningglory [17, 26]: 20
- Plant response rating, Velvetleaf [18, 23]: 0
- Plant response rating, Velvetleaf [18, 25]: 0
- Plant response rating (0 to 100), Velvetleaf ([18]; preemergence): 40
- Plant response rating, Velvetleaf [18, 26]: 30
- Plant response rating, Nutsedge [19, 23]: 0
- Plant response rating, Nutsedge [19, 25]: 0
- Plant response rating (0 to 100), Nutsedge ([19]; preemergence): 70
- Plant response rating, Nutsedge [19, 26]: 10
- Plant response rating (0 to 100), Sunflower (Sunflower [20]): 50
